{"source": "paper PMC6460286", "about": "(Biochimie, 2017)", "key": {"[1]": {"test_system": "HIF PHD (HIF1 ODD-luc reporter)", "assay": "HIF1 ODD-luc reporter assay in SH-SY5Y cells", "type": "cell-based", "conditions": "for effect on HIF1 ODD-luc reporter activation induced by Compound 8a: agents applied in equal concentration; for effect on reporter activation by HIF PHD inhibitors of various nature: NAC up to millimolar concentrations"}, "PHD2": {"target": "PHD2", "conditions": "ref 36 (FG-4592), ref 37 (IOX2); cited from earlier work"}, "[2]": {"test_system": "HIF-1 target genes (VEGF, HO-1), HIF1α, NQO-1", "assay": "RT-PCR of HIF1 target genes in N2a cells", "type": "cell-based, mouse", "conditions": "4 h"}, "[3]": {"assay": "Potassium ferricyanide reduction", "type": "physicochemical", "conditions": "1 mM agent, 1 mM potassium ferricyanide, 50 mM Tris-HCl buffer, pH 7.4"}, "HIF PHD": {"test_system": "HIF PHD", "conditions": "cited from earlier work"}, "HIF1 and HIF2": {"test_system": "HIF1 and HIF2", "conditions": "cited from earlier work"}, "HIF": {"test_system": "HIF", "conditions": "cited from earlier work"}, "[4]": {"test_system": "HIF PHD (HIF1 ODD-luc reporter)", "conditions": "specific for HIF PHD; cited from earlier work"}, "[5]": {"conditions": "3 h incubation, physiological L-Asc (0.04–0.1 mM)"}, "[6]": {"conditions": "reporter activation by Compound 8a"}}, "note": "Like-named read-outs stand apart in the source and are kept apart here.", "data": [{"smiles": "Cc1nc(C(=O)NCC(=O)O)c(O)c2ccc(Oc3ccccc3)cc12", "note": "[FG-4592]", "values": [{"measurement": "suppressing effect of L-Asc on reporter activation induced by the inhibitor", "setting": "[1]; [5]", "result": "minimal"}, {"measurement": "concentration above which toxicity is seen", "setting": "[1]; titration up to 0.6 mM, Supplementary Fig. S2", "result": "above 100 μM"}]}, {"smiles": "CCOC(=O)c1ccc(O)c(O)c1", "note": "[DHB, Ethyl 3,4-dihydroxybenzoate]", "values": [{"measurement": "suppressing effect of L-Asc on reporter activation induced by the inhibitor", "setting": "[1]; [5]", "result": "very sensitive to L-Asc"}, {"measurement": "EC50", "setting": "[1]; read-out: EC50 of reporter activation", "result": 250, "unit": "µM"}]}, {"smiles": "O=C(O)CNC(=O)c1c(O)c2ccccc2n(Cc2ccccc2)c1=O", "note": "[IOX2]", "values": [{"measurement": "suppressing effect of L-Asc on reporter activation induced by the inhibitor", "setting": "[1]; [5]", "result": "minimal"}, {"measurement": "inhibition constant, homogeneous enzyme assay with PHD2", "setting": "PHD2", "result": "nanomolar range"}]}, {"smiles": "O=C1O[C@H]([C@@H](O)CO)C(O)=C1O", "note": "[L-Asc, L-ascorbic acid]", "values": [{"measurement": "effect on HIF1 ODD-luc reporter activation induced by Compound 8a", "setting": "[1]; 3 h incubation", "result": "potently suppresses"}, {"measurement": "L-Asc concentration at which suppression is already observed", "setting": "[1]; [6]", "result": 10, "unit": "µM"}, {"measurement": "concentration above which L-Asc effect shows saturation", "setting": "[1]; [6]", "result": "above 40 μM"}, {"measurement": "drop in magnitude of reporter activation with increase in L-Asc concentration", "setting": "[1]; [6]", "result": 2.5, "unit": "fold"}, {"measurement": "increase in EC50 of Compound 8a with increase in L-Asc concentration", "setting": "[1]; [6]", "result": "ca. 1.5 fold"}, {"measurement": "effect of L-Asc alone on expression of HIF1 target genes", "setting": "[2]; 100 μM", "result": "no changes"}, {"measurement": "reducing power (ferricyanide reduction kinetics), L-Asc vs D-Asc", "setting": "[3]", "result": "no difference in reduction kinetics"}, {"measurement": "Km", "setting": "HIF PHD", "result": "~50", "unit": "µM"}, {"measurement": "L-Asc effect on HIF stabilization induced by 1 mM monomethyloxalylglycine", "setting": "HIF1 and HIF2; immunoblotting", "result": "absence of L-Asc effect"}, {"measurement": "concentration giving the comparable suppressive effect on HIF stability", "setting": "HIF", "result": 50, "unit": "µM"}]}, {"smiles": "COC(=O)CNC(=O)C(=O)OC", "note": "[DMOG, dimethyloxalyl glycine]", "values": [{"measurement": "suppressing effect of L-Asc on reporter activation induced by the inhibitor", "setting": "[1]; [5]", "result": "pronounced for DMOG up to 250 μM"}, {"measurement": "suppressing effect of L-Asc on reporter activation induced by the inhibitor", "setting": "[1]; higher DMOG concentrations (mM range), not shown", "result": "negligible"}, {"measurement": "working concentration resulting in HIF1 and HIF2 stabilization", "setting": "HIF1 and HIF2; after 2 h incubation", "result": "ca. 1 mM"}]}, {"smiles": "Oc1cccnc1NC(c1ccc(Cl)cc1)c1ccc2cccnc2c1O", "note": "(stereo not drawn) [Compound 8, adaptaquin]", "values": [{"measurement": "EC50", "setting": "[4]", "result": "~2", "unit": "µM"}]}, {"smiles": "CC(=O)N[C@@H](CS)C(=O)O", "note": "[NAC, N-acetylcysteine]", "values": [{"measurement": "effect on HIF1 ODD-luc reporter activation induced by Compound 8a", "setting": "[1]; 3 h incubation", "result": "neither D-Asc nor NAC applied in the equal concentration cause any change"}, {"measurement": "suppressing effect on reporter activation", "setting": "[1]; NAC up to 1 mM, either drug, not shown", "result": "no suppressing effect"}, {"measurement": "effect on reporter activation by HIF PHD inhibitors of various nature", "setting": "[1]", "result": "no effect"}]}, {"smiles": "O=C1O[C@H]([C@H](O)CO)C(O)=C1O", "note": "[D-Asc, D-isoascorbic acid]", "values": [{"measurement": "effect on HIF1 ODD-luc reporter activation induced by Compound 8a", "setting": "[1]; 3 h incubation", "result": "neither D-Asc nor NAC applied in the equal concentration cause any change"}, {"measurement": "effect on reporter activation by HIF PHD inhibitors of various nature", "setting": "[1]", "result": "minor effect, if any"}, {"measurement": "inhibition of HIF1 target gene activation", "setting": "[2]; 100 μM co-treatment with 5 μM Compound 8a", "result": "under 10%"}, {"measurement": "reducing power (ferricyanide reduction kinetics), L-Asc vs D-Asc", "setting": "[3]", "result": "no difference in reduction kinetics"}]}]}
